Assay results from patent US5521175A, “Benzodiazepine derivatives” (Merck Sharp & Dohme Ltd., priority 1992, dated 1996).
Structures can show the parent of a compound that is named as a salt. Where two headings read alike, the source gives them in different places.

Key:
CCK-A receptor = biological target: T1, CCK-A receptor (Rattus norvegicus, UniProt P30551); assay: displacement of ^125 I-CCK from rat pancreas (CCK-A receptor binding)
T1 sequence (P30551 1-444): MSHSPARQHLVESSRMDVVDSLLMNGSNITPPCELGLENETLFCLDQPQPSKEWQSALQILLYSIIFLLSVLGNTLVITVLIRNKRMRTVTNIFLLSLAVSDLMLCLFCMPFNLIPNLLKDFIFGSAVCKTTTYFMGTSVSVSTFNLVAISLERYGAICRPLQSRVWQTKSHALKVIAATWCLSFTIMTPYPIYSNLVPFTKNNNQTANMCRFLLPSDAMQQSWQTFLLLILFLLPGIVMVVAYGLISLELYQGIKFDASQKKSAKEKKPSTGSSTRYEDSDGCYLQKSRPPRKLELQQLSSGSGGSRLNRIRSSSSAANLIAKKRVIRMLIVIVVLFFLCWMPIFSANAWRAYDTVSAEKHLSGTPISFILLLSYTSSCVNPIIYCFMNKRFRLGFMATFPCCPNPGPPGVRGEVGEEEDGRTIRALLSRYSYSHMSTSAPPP
Procedure: (§1) The CCK-A and CCK-B antagonising activity of the compounds described herein was evaluated using the assays described in published European patent application no. […] The method essentially involves determining the concentration of the test compound required to displace 50% of the specific ^125 I--CCK from rat pancreas (CCK-A) or guinoa pig brain (CCK-B).

CCK-B receptor = biological target: T2, CCK-B receptor (Cavia porcellus, UniProt H0VZC5); assay: displacement of ^125 I-CCK from guinea pig brain (CCK-B receptor binding); conditions: guinoa pig brain (CCK-B)
T2 construct: guinoa pig brain (CCK-B); from tissue; host or cells: guinea pig brain
T2 sequence (H0VZC5 1-426): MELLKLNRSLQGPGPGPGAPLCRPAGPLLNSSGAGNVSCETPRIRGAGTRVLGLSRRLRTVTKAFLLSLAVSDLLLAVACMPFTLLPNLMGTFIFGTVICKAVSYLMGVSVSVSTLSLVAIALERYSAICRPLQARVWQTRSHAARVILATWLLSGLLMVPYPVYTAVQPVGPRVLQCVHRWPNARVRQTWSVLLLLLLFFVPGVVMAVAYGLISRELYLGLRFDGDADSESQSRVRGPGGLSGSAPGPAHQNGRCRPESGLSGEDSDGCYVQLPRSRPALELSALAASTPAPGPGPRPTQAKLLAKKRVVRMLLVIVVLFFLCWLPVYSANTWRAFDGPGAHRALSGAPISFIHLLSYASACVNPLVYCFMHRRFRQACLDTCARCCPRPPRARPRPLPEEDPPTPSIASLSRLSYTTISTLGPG
Procedure: as §1

[1] = ^125 I-CCK, rat pancreas (CCK-A), read-out: CCK receptor binding IC50, ^125 I-CCK Pancreas
[2] = read-out: CCK receptor binding IC50, ^125 I-CCK Brain

Row | Structure (SMILES) | IC50 (CCK-A receptor; [1]) [nM] | IC50 (CCK-B receptor; [2]) [nM] | IC50 (CCK-B receptor; CCK receptor binding IC50, ^125 I-CCK Brain) [nM] | IC50 (CCK-A receptor) [nM]
1 | CCCN1C(=O)C(NC(=O)Nc2cccc(C)c2)N=C(C2CCCCN2)c2ccccc21 (single isomer, unassigned) [Example 1, N-[2,3-Dihydro-2-oxo-5-(piperidin-2-yl)-1-(1-propyl)-1H-1,4-benzodiazepin-3-yl]-N'-[3-methylphenyl]urea hydrochloride] | > 3000 | 41.8 |  | 
2 | CCCN1C(=O)C(NC(=O)Nc2cccc(C)c2)N=C(C2CCCCN2)c2ccccc21 (single isomer, unassigned) [Example 2, N-[2,3-Dihydro-2-oxo-5-(piperidin-2-yl)-1-(1-propyl)-1H-1,4,benzodiazepin-3-yl]-N'-[3-methylphenylurea hydrochloride] | > 3000 | 36.4 |  | 
3 | CCCN1C(=O)C(NC(=O)Nc2cccc(C)c2)N=C(C2CCCCN2C)c2ccccc21 (single isomer, unassigned) [Example 3, N-[2,3-Dihydro-5-(1-methylpiperidin-2-yl)-2-oxo-1-(1propyl)-1H-1,4-benzodiazepin-3-yl]-N'-[3-methylphenyl]urea hydrochloride] |  |  | 53.6 | 
4 | CCCN1C(=O)C(NC(=O)Nc2cccc(C)c2)N=C(C2CCC(C)(C)CCN2C)c2ccccc21 (single isomer, unassigned) [Example 5, N-[2,3-Dihydro-5-(2,3,4,5,6-hexahydro-1,5,5,-trimethyl-1H-azepin-2-yl)-2-oxo-1-(1-propyl)-1H-1,4-benzodiazepin-3-yl]-N'-[3-methylphenyl]urea hydrochloride] |  | 25.5 |  | 
5 | Cc1cccc(NC(=O)NC2N=C(C3CCC(C)(C)CCN3)c3ccccc3N(C)C2=O)c1 (single isomer, unassigned) [Example 6, N-[2,3-Dihydro-5-(5,5-dimethyl-2,3,4,5,6-hexahydro-1H-azepin-2-yl)-1-methyl-2-oxo-1H-1,4-benzodiazepin-3-yl]-N'-[3-methylphenyl]urea hydrochloride] |  | 12 |  | 
6 | CN1C(=O)C(NC(=O)Nc2ccc3c(c2)CCC3)N=C(C2CCC(C)(C)CCN2)c2ccccc21 (single isomer, unassigned) [Example 7, N-[2,3-Dihydro-5-(5,5-dimethyl-2,3,4,5,6-hexahydro-1H-azepin-2-yl)-1-methyl-2-oxo-1H-1,4-benzodiazepin-3-yl]-N'-[5-indanyl]urea hydrochloride] | 6490 | 2.37 |  | 
7 | CCCN1C(=O)C(NC(=O)Nc2cccc(C)c2)N=C(C2CC(C)(C)CCN2)c2ccccc21 (single isomer, unassigned) [Example 8, N-[2,3-Dihydro-5-(4,4-dimethylpiperidin-2-yl)-2-oxo-1-(1-propyl)-1H-1,4-benzodiazepin-3-yl]-N'-[3-methylphenyl]urea hydrochloride] |  | 1.47 |  | 
8 | CCCN1C(=O)C(NC(=O)Nc2ccc3c(c2)CCC3)N=C(C2CC(C)(C)CCN2)c2ccccc21 (single isomer, unassigned) [Example 12, N-[2,3-Dihydro-5-(4,4-dimethylpiperidin-2-yl)-2-oxo-1-(1-propyl)-1H, 1,4-benzodiazepin-3-yl-N'-[5-indanyl]urea hydrochloride] |  |  |  | 3220
9 | Cc1cccc(NC(=O)NC2N=C(C3CCNCC3)c3ccccc3N(CC(C)C)C2=O)c1 (centres unmarked) [Example 9, N-[2,3-Dihydro-1-(2-methylpropyl)-2-oxo-5-(piperidin-4-yl)-1H-1,4-benzodiazepin-3-yl]-N'-[3-methylpheny]urea trifluoroacetic acid salt] | 2670 | 290 |  | 
10 | Cc1cccc(NC(=O)NC2N=C(C3CCN(C)CC3)c3ccccc3N(CC(C)C)C2=O)c1 (centres unmarked) [Example 10, N-[2,3-Dihydro-5-(N-methylpiperidin-4-yl)-1-(2-methylpropyl)-2-oxo-1H-1,4-benzodiazepin-3-yl]-N'-[3-methylphenyl]urea hydrochloric acid salt] | 2930 | 240 |  | 
11 | CC(C)CN1C(=O)C(NC(=O)Nc2cccc(-c3nnn[nH]3)c2)N=C(C2CCNCC2)c2ccccc21 (centres unmarked) [Example 11, N-[2,3-Dihydro-1-(2-methylpropyl)-2-oxo-5-(piperidin-4-yl)-1H-1,4-benzodiazepin-3-yl]-N'-[3-(tetrazol-5-yl)phenyl]urea, trifluoroacetic acid salt] | > 3000 | 55 |  | 
